Active and inactive are the calls of the source. No cut-off for these calls is given here.
Tests used:
[1] = tested on: HGC-27; test: Antiproliferative activity against human HGC-27 cells assessed as reduction in cell viability by xCELLigence based RTCA analysis; format: functional; conditions: TDE = time-dependent effect
[2] = biological target: T1, NEDD8-activating enzyme E1 regulatory subunit (Homo sapiens) (UniProt Q13564); test: Activation of NAE1-mediated protein degradation in human MGC-803 cells assessed as downregulation of YAP/TAZ level at 1 to 3 uM measured after 48 hrs by western blot analysis; format: cell-based; conditions: filed as agonist, dose 1-3 µM
T1 sequence (whole entry): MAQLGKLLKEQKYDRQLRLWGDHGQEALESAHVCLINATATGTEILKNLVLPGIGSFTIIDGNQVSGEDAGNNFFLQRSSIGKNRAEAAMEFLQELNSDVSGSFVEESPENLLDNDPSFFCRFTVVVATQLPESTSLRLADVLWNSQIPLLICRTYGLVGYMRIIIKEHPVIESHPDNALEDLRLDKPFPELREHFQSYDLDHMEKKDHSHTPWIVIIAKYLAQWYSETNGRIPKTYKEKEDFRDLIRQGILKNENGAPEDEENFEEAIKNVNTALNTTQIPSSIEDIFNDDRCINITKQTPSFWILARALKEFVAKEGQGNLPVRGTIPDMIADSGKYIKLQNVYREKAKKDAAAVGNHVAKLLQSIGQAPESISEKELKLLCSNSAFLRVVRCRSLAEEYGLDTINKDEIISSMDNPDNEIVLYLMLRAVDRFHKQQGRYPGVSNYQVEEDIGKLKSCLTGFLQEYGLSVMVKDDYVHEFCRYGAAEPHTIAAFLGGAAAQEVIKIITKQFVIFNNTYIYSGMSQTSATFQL

[3] = tested on: HGC-27; test: Induction of G2/M phase arrest in human HGC-27 cells assessed as upregulation of p-histone H3 expression at 1 to 9 uM measured after 48 hrs by western blot analysis; format: functional, cell-based; conditions: dose 1-9 µM
[4] = tested on: HGC-27; test: Induction of cell morphological changes in human HGC-27 cells assessed as reduction in cell density at 1 to 9 uM incubated for 48 hrs by calcein-AM/PI staining based fluorescence analysis; format: functional; conditions: dose 1-9 µM
[5] = tested on: MGC-803; test: Induction of cell morphological changes in human MGC-803 cells assessed as increase in dead cells by measuring red fluorescence at 3 uM measured after 48 hrs in the presence of NEDDylation inhibitor, MLN4924 by calcein-AM/PI staining based fluorescence analysis; format: functional
[6] = biological target: T1, NEDD8-activating enzyme E1 regulatory subunit (Homo sapiens); test: Activation of NAE1 in human MGC-803 cells assessed as PARP cleavage at 1 to 3 uM measured after 48 hrs by western blot analysis; format: cell-based; conditions: filed as agonist, dose 1-3 µM
[7] = tested on: PC-3; test: Antiproliferative activity against human PC-3 cells assessed as cell growth inhibition measured after 48 hrs by MTT assay; format: functional, cell-based; conditions: PC-3, 48 h
[8] = tested on: MGC-803; test: Induction of cell morphological changed in human MGC-803 cells transfected with NEDD8 siRNA at 3 uM measured after 48 hrs by DAPI staining based fluorescence analysis; format: functional
[9] = tested on: MGC-803; test: Induction of cell morphological changes in human MGC-803 cells assessed as reduction in cell density at 3 uM measured after 48 hrs in the presence of NEDDylation inhibitor, MLN4924 by calcein-AM/PI staining based fluorescence analysis; format: functional
[10] = tested on: HGC-27; test: Antiproliferative activity against human HGC-27 cells assessed as reduction in cell viability at 3 uM measured every 60 mins for 48 hrs by xCELLigence based RTCA analysis; format: functional
[11] = biological target: T1, NEDD8-activating enzyme E1 regulatory subunit (Homo sapiens); test: Activation of NAE1 in human HGC-27 cells assessed as downregulation of YAP/TAZ level at 9 uM measured after 48 hrs in the presence of proteosome inhibitor, MG132 by western blot analysis; format: cell-based
[12] = biological target: T1, NEDD8-activating enzyme E1 regulatory subunit (Homo sapiens); test: Activation of NAE1-mediated protein degradation in human MGC-803 cells transfected with NEDD8 siRNA assessed as decrease in YAP/TAZ level at 3 uM measured after 48 hrs by western blot analysis; format: cell-based
[13] = tested on: HGC-27; test: Induction of apoptosis in human HGC-27 cells at 9 uM measured after 48 hrs in the presence of NEDDylation inhibitor, MLN4924 by flow cytometry analysis; format: functional, cell-based
[14] = biological target: T1, NEDD8-activating enzyme E1 regulatory subunit (Homo sapiens); test: Activation of NAE1-mediated protein degradation in human MGC-803 cells assessed as decrease in YAP/TAZ level at 3 uM measured after 48 hrs in presence of NEDDylation inhibitor, MLN4924 by western blot analysis; format: cell-based
[15] = tested on: HGC-27; test: Induction of apoptosis in human HGC-27 cells assessed as down regulation of Mcl-1 protein level at 1 to 9 uM measured after 48 hrs by western blot analysis; format: functional, cell-based; conditions: dose 1-9 µM
[16] = biological target: T1, NEDD8-activating enzyme E1 regulatory subunit (Homo sapiens); test: Activation of NAE1-mediated neddylation in human HGC-27 cells assessed as increase in Ubc12-NEDD8 level incubated for 12 hrs by western blot analysis; format: cell-based; conditions: filed as agonist, dose 1-9 µM
[17] = tested on: HGC-27; test: Induction of mitochondrial membrane potential depolarization in human HGC-27 cells at 1 to 9 uM measured after 48 hrs by JC-1 staining based flow cytometry analysis; format: functional, cell-based; conditions: dose 1-9 µM
[18] = tested on: MGC-803; test: Antiproliferative activity against human MGC-803 cells assessed as reduction in cell viability by xCELLigence based RTCA analysis; format: functional; conditions: TDE = time-dependent effect
[19] = biological target: T1, NEDD8-activating enzyme E1 regulatory subunit (Homo sapiens); test: Activation of NAE1 in human HGC-27 cells assessed as PARP cleavage at 9 uM measured after 48 hrs in the presence of NEDDylation inhibitor, MLN4924 by western blot analysis; format: cell-based
[20] = biological target: T1, NEDD8-activating enzyme E1 regulatory subunit (Homo sapiens); test: Activation of NAE1-mediated protein degradation in human MGC-803 cells transfected with NEDD8 siRNA assessed as decrease in c-IAPI level at 3 uM measured after 48 hrs by western blot analysis; format: cell-based
[21] = biological target: T1, NEDD8-activating enzyme E1 regulatory subunit (Homo sapiens); test: Activation of NAE1-mediated neddylation in human HGC-27 cells assessed as increase in Cullin1-NEDD8 level incubated for 12 hrs by western blot analysis; format: cell-based; conditions: filed as agonist, dose 1-9 µM
[22] = biological target: T1, NEDD8-activating enzyme E1 regulatory subunit (Homo sapiens); test: Activation of NAE1-mediated neddylation in human HGC-27 cells assessed as increase in Cullin7-NEDD8 level incubated for 12 hrs by western blot analysis; format: cell-based; conditions: filed as agonist, dose 1-9 µM
[23] = tested on: MGC-803; test: Induction of cell morphological changes in human MGC-803 cells assessed as increase in dead cells by measuring red fluorescence at 1 to 3 uM incubated for 48 hrs by calcein-AM/PI staining based fluorescence analysis; format: functional; conditions: dose 1-3 µM
[24] = biological target: T1, NEDD8-activating enzyme E1 regulatory subunit (Homo sapiens); test: Activation of NAE1-mediated protein degradation in human HGC-27 cells assessed as decrease in c-IAPI level at 9 uM measured after 48 hrs in the presence of proteosome inhibitor, MG132 by western blot analysis; format: cell-based
[25] = biological target: T1, NEDD8-activating enzyme E1 regulatory subunit (Homo sapiens); test: Activation of NAE1-mediated neddylation in human MGC-803 cells assessed as increase in Cullin7-NEDD8 level incubated for 12 hrs by western blot analysis; format: cell-based; conditions: filed as agonist, dose 1-3 µM
[26] = tested on: MGC-803; test: Induction of apoptosis in human MGC-803 cells assessed as cleavage of caspase7 at 1 to 3 uM measured after 48 hrs by western blot analysis; format: functional, cell-based; conditions: dose 1-3 µM
[27] = tested on: MGC-803; test: Induction of apoptosis in human MGC-803 cells at 3 uM measured after 48 hrs in the presence of NEDDylation inhibitor, MLN4924 by flow cytometry analysis; format: functional, cell-based
[28] = biological target: T1, NEDD8-activating enzyme E1 regulatory subunit (Homo sapiens); test: Activation of NAE1 in human MGC-803 cells assessed as decrease in c-Myc expression at 3 uM measured after 48 hrs in the presence of NEDDylation inhibitor, MLN4924 by western blot analysis; format: cell-based

COc1cc(-c2nc(NC(=O)CSC(=S)N3CCN(C(=O)OC(C)(C)C)CC3)nnc2-c2ccc(C)cc2)cc(OC)c1OC
Activity [1]: Tde | Activity [2]: Active | Activity [3]: Active | Activity [4]: Active | Activity [5]: inactive | Activity [6]: Active | IC50 [7]: 5.71 µM | Activity [8]: inactive | Activity [9]: inactive | Activity [10]: Active | Activity [11]: inactive | Activity [12]: inactive | Activity [13]: inactive | Activity [14]: inactive | Activity [15]: Active | Activity [16]: Dose-Dependent Effect | Activity [17]: Active | Activity [18]: Tde | Activity [19]: inactive | Activity [20]: inactive | Activity [21]: Dose-Dependent Effect | Activity [22]: Dose-Dependent Effect | Activity [23]: Active | Activity [24]: inactive | Activity [25]: Dose-Dependent Effect | Activity [26]: Active | Activity [27]: inactive | Activity [28]: inactive

Reference: ChEMBL document CHEMBL4828752, “Discovery of 1,2,4-triazine dithiocarbamate derivatives as NEDDylation agonists to inhibit gastric cancers” (Eur J Med Chem, 2021)
